Data: ChEMBL document CHEMBL1126012 (J Med Chem, 1992)
pIC50: −log10 of the molar value.

Target: Sodium-dependent dopamine transporter (Rattus norvegicus, UniProt P23977)
Test: Inhibition of [3H]3-beta-(p-fluorophenyl)tropane-2beta-carboxylic acid methyl ester [3H]7a binding to Dopamine transporter of rat striatal membranes
Format: cell membranes, Membrane

Sequence of Sodium-dependent dopamine transporter (P23977 whole entry): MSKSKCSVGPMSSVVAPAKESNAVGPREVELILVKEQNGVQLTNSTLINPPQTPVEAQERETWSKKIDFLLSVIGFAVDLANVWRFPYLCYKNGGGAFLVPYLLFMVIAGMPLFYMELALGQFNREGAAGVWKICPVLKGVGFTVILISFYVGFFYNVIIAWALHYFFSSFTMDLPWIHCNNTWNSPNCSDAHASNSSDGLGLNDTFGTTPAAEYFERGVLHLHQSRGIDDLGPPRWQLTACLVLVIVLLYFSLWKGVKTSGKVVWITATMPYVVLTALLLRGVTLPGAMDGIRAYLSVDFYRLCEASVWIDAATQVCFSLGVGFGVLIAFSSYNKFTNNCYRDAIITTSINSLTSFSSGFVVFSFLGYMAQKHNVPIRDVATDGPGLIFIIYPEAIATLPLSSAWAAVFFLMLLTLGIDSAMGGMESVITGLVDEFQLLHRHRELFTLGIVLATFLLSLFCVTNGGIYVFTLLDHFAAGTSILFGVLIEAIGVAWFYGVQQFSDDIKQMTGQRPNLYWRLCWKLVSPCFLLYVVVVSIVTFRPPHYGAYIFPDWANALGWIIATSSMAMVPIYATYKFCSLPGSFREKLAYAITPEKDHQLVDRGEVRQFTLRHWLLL

SMILES	pIC50
CN1CC2CC(OC(=O)c3ccccc3)CC1C2 (stereo in doubt; 4d-(+))	5.53
COC(=O)C1C(OC(=O)c2ccccc2)C[C@H]2CCC1N2Cc1ccccc1 (some centres undefined)	6.18
CN1CC2CC1C[C@@H](OC(=O)c1ccccc1)C2 (stereo in doubt; 4c)	4.70
CN1CC2CC(OC(=O)c3ccccc3)CC1C2 (stereo in doubt; 4d-(-))	5.55
COC(=O)C1C(OC(=O)c2ccccc2)C[C@H]2CCC1[N+]2(C)C (some centres undefined)	4.97
COC(=O)C1C2CC[C@H](CC1OC(=O)c1ccccc1)N2 (some centres undefined)	6.52
COC(=O)C1C(OC(=O)c2ccccc2)C[C@H]2CCC1N2C(C)=O (some centres undefined)	5.47
CN1CC2CC1C[C@@H](OC(=O)c1ccccc1)C2 (stereo in doubt; 4d)	5.31
CN1[C@@H]2CC[C@H]1C[C@H](OC(=O)c1ccccc1)C2	4.67
